Source: US20050074879A1, “Antisense oligonucleotide modulation of STAT3 expression” (priority 2000, published 2005)
Oligonucleotides are written 5' to 3', each unit as a sugar letter and its base; * is a phosphorothioate linkage, no mark a phosphodiester; rarer units and linkages stand in square brackets, end groups in braces. Plain capitals give the bases only. e = 2'-O-(2-methoxyethyl) (MOE); [5mC] = 5-methylcytosine; d = 2'-deoxy (DNA)

tested on: Human STAT3 mRNA; test: Inhibition of human STAT3 mRNA levels in A549 cells, 75 nM, real-time PCR (Table 13); assay type: cell-based; conditions: 75 nM oligonucleotide with LIPOFECTIN, real-time PCR PPS 199, percent inhibition relative to untreated control cells, average of 2 experiments
Procedure: Oligonucleotide activity is assayed by quantitation of STAT3 mRNA levels by real-time PCR (RT-PCR) using the ABI PRISMS 7700 Sequence Detection System (PE-Applied Biosystems, Foster City, Calif.) according to manufacturer's instructions. This is a closed-tube, non-gel-based, fluorescence detection system which allows high-throughput quantitation of polymerase chain reaction (PCR) products in real-time. As opposed to standard PCR, in which amplification products are quantitated after the PCR is completed, products in RT-PCR are quantitated as they accumulate. This is accomplished by including in the PCR reaction an oligonucleotide probe that anneals specifically between the forward and reverse PCR primers, and contains two fluorescent dyes. A reporter dye (e.g., JOE or FAM, PE-Applied Biosystems, Foster City, Calif.) is attached to the 5′ end of the probe and a quencher dye (e.g., TAMRA, PE-Applied Biosystems, Foster City, Calif.) is attached to the 3′ end of the probe. When the probe and dyes are intact, reporter dye emission is quenched by the proximity of the 3′ quencher dye. During amplification, annealing of the probe to the target sequence creates a substrate that can be cleaved by the 5′-exonuclease activity of Taq polymerase. […] With each cycle, additional reporter dye molecules are cleaved from their respective probes, and the fluorescence intensity is monitored at regular (six-second) intervals by laser optics built into the ABI PRISM™ 7700 Sequence Detection System. In each assay, a series of parallel reactions containing serial dilutions of mRNA from untreated control samples generates a standard curve that is used to quantitate the percent inhibition after antisense oligonucleotide treatment of test samples.
RT-PCR reagents are obtained from PE-Applied Biosystems, Foster City, Calif. RT-PCR reactions are carried out by adding 25 l PCR cocktail (1× TAQMAN7 buffer A, 5.5 mM MgCl2, 300 µM each of DATP, dCTP and dGTP, 600 µM of dUTP, 100 nM each of forward primer, reverse primer, and probe, 20 U RNAse inhibitor, 1.25 units AMPLITAQ GOLD7, and 12.5 U MuLV reverse transcriptase) to 96 well plates containing 25 l poly(A) mRNA solution. The RT reaction is carried out by incubation for 30 minutes at 48° C. following a 10 minute incubation at 95° C. to activate the AMPLITAQ GOLD7, 40 cycles of a two-step PCR protocol are carried out: 95° C. for 15 seconds (denaturation) followed by 60° C. for 1.5 minutes (annealing/extension).
The compounds were analyzed for their effect on STAT3 mRNA levels in A549 cells. The human lung carcinoma cell line A549 was obtained from the American Type Culture Collection (ATCC) (Manassas, Va.). A549 cells were routinely cultured in DMEM basal media (Invitrogen Corporation, Carlsbad, Calif.) supplemented with 10% fetal calf serum (Invitrogen Corporation, Carlsbad, Calif.), 100 units/mL penicillin, and 100 ug/mL streptomycin (Invitrogen Corporation, Carlsbad, Calif.). Cells were routinely passaged by trypsinization and dilution when they reached 90% confluence.
When cells reached 65-75% confluency, they were treated with oligonucleotide. For cells grown in 96-well plates, wells were washed once with […] OPTI-MEM-1 reduced-serum medium (Invitrogen Corporation, Carlsbad, Calif.) and then treated with 130 µL of OPTI-MEM-1 containing […] LIPOFECTIN (Invitrogen Corporation, Carlsbad, Calif.) and 75 nM of the compounds in Table 13. Cells were treated and data were obtained in duplicate. Untreated cells served as controls. After 4-7 hours of treatment at 37° C., the medium was replaced with fresh medium. Cells were harvested 16-24 hours after oligonucleotide treatment. STAT3 mRNA levels in A549 cells were quantitated by real-time PCR as described by other methods herein.
Probes and primers to human STAT3 were designed to hybridize to a human STAT3 sequence, using published sequence information (incorporated herein as SEQ ID NO: 1). For STAT 3 the PCR primers were: • forward primer: […]

Row | Substance | % Inhib (inhibition of human STAT 3 mRNA levels)
1 | 337281 (antisense eG*eG*eG*eT*eT*dT*dT*dA*dT*dA*dG*dT*dT*dG*dA*eA*eA*eT*e[5mC]*eA) [compound 337281] | 16%
2 | 337282 (antisense e[5mC]*eT*eT*eG*eA*dG*dG*dG*dT*dT*dT*dT*dA*dT*dA*eG*eT*eT*eG*eA) [compound 337282] | 58%
3 | 337283 (antisense eT*eG*eA*e[5mC]*eT*d[5mC]*dT*dT*dG*dA*dG*dG*dG*dT*dT*eT*eT*eA*eT*eA) [compound 337283] | 71%
4 | 337285 (antisense e[5mC]*eA*eT*eG*eT*d[5mC]*dT*d[5mC]*d[5mC]*dT*dT*dG*dA*d[5mC]*dT*e[5mC]*eT*eT*eG*eA) [compound 337285] | 78%
5 | 337286 (antisense eA*eT*eT*e[5mC]*eA*dG*dA*dT*d[5mC]*dT*dT*dG*d[5mC]*dA*dT*eG*eT*e[5mC]*eT*e[5mC]) [compound 337286] | 77%
6 | 337287 (antisense eT*eG*eG*eT*eT*dG*dT*dT*dT*d[5mC]*d[5mC]*dA*dT*dT*d[5mC]*eA*eG*eA*eT*e[5mC]) [compound 337287] | 82%
7 | 337288 (antisense eT*eG*eG*eT*e[5mC]*dA*d[5mC]*dT*dG*dA*d[5mC]*dT*dG*dG*dT*eT*eG*eT*eT*eT) [compound 337288] | 84%
8 | 337289 (antisense eT*e[5mC]*e[5mC]*eA*eG*d[5mC]*dT*dG*d[5mC]*dT*dG*d[5mC]*dA*dT*d[5mC]*eT*eT*e[5mC]*eT*eG) [compound 337289] | 83%
9 | 337290 (antisense eG*eA*eG*e[5mC]*eA*dT*d[5mC]*dT*dG*dT*dT*d[5mC]*d[5mC]*dA*dG*e[5mC]*eT*eG*e[5mC]*eT) [compound 337290] | 80%
10 | 337291 (antisense e[5mC]*eT*eT*e[5mC]*eT*d[5mC]*d[5mC]*dG*d[5mC]*dA*dT*d[5mC]*dT*dG*dG*eT*e[5mC]*e[5mC]*eA*eG) [compound 337291] | 66%
11 | 337292 (antisense eT*eT*e[5mC]*eT*eG*d[5mC]*dA*d[5mC]*dG*dT*dA*d[5mC]*dT*d[5mC]*d[5mC]*eA*eT*e[5mC]*eG*e[5mC]) [compound 337292] | 81%
12 | 337294 (antisense e[5mC]*eT*e[5mC]*eT*eT*d[5mC]*d[5mC]*dA*dG*dT*d[5mC]*dA*dG*d[5mC]*d[5mC]*eA*eG*e[5mC]*eT*e[5mC]) [compound 337294] | 75%
13 | 337295 (antisense eT*eG*e[5mC]*e[5mC]*eG*d[5mC]*d[5mC]*dT*d[5mC]*dT*dT*d[5mC]*d[5mC]*dA*dG*eT*e[5mC]*eA*eG*e[5mC]) [compound 337295] | 82%
14 | 337296 (antisense e[5mC]*e[5mC]*eA*eG*eT*dT*dT*dT*d[5mC]*dT*dA*dG*d[5mC]*d[5mC]*dG*eA*eT*e[5mC]*eT*eA) [compound 337296] | 80%
15 | 337297 (antisense eA*e[5mC]*eG*eT*eT*dA*dT*d[5mC]*d[5mC]*dA*dG*dT*dT*dT*dT*e[5mC]*eT*eA*eG*e[5mC]) [compound 337297] | 72%
16 | 337298 (antisense eA*eG*eT*eT*eG*dA*dG*dA*dT*dT*d[5mC]*dT*dG*d[5mC]*dT*eA*eA*eT*eG*eA) [compound 337298] | 74%
17 | 337299 (antisense eT*e[5mC]*eT*eG*eA*dA*dG*dT*dT*dG*dA*dG*dA*dT*dT*e[5mC]*eT*eG*e[5mC]*eT) [compound 337299] | 80%

Row | Substance | % Inhib (inhibition of human STAT 3 mRNA levels)
18 | 337300 (antisense e[5mC]*e[5mC]*eT*eT*eT*dG*dT*dA*dG*dG*dA*dA*dA*d[5mC]*dT*eT*eT*eT*eT*eG) [compound 337300] | 23%
19 | 337301 (antisense eA*eG*eG*e[5mC]*eA*d[5mC]*dT*dT*dT*dT*d[5mC]*dA*dT*dT*dA*eA*eG*eT*eT*eT) [compound 337301] | 73%
20 | 337302 (antisense eT*eT*eG*eA*e[5mC]*d[5mC]*dA*dG*d[5mC]*dA*dA*d[5mC]*d[5mC]*dT*dG*eA*e[5mC]*eT*eT*eT) [compound 337302] | 61%
21 | 337304 (antisense eT*eT*eT*eT*eA*dA*dG*d[5mC]*dT*dG*dA*dT*dA*dA*dT*eT*e[5mC]*eA*eA*e[5mC]) [compound 337304] | 15%
22 | 337305 (antisense e[5mC]*eT*eT*eT*eA*dA*dT*dT*dT*dT*dA*dA*dG*d[5mC]*dT*eG*eA*eT*eA*eA) [compound 337305] | 25%
23 | 337306 (antisense eG*e[5mC]*eA*e[5mC]*eA*d[5mC]*dT*dT*dT*dA*dA*dT*dT*dT*dT*eA*eA*eG*e[5mC]*eT) [compound 337306] | 77%
24 | 337307 (antisense eT*e[5mC]*eA*eA*eT*dG*d[5mC]*dA*d[5mC]*dA*d[5mC]*dT*dT*dT*dA*eA*eT*eT*eT*eT) [compound 337307] | 53%
25 | 337308 (antisense e[5mC]*e[5mC]*e[5mC]*eA*eG*dA*dA*dT*dG*dT*dT*dA*dA*dA*dT*eT*eT*e[5mC]*e[5mC]*eG) [compound 337308] | 70%
26 | 337309 (antisense eA*eG*eA*eG*eG*d[5mC]*dT*dG*d[5mC]*d[5mC]*dG*dT*dT*dG*dT*eT*eG*eG*eA*eT) [compound 337309] | 73%
27 | 337310 (antisense eA*eA*eG*eT*eG*dT*dT*dT*dG*dA*dA*dT*dT*d[5mC]*dT*eG*e[5mC]*eA*eG*eA) [compound 337310] | 73%
28 | 337311 (antisense eT*e[5mC]*eT*e[5mC]*eT*dG*d[5mC]*dT*d[5mC]*d[5mC]*d[5mC]*dT*d[5mC]*dA*dG*eG*eG*eT*e[5mC]*eA) [compound 337311] | 61%
29 | 337312 (antisense eA*eT*e[5mC]*eA*eG*dG*dT*dG*d[5mC]*dA*dG*d[5mC]*dT*d[5mC]*d[5mC]*eT*e[5mC]*eA*eG*eT) [compound 337312] | 78%
30 | 337313 (antisense eA*eG*eG*eT*eG*dA*dT*d[5mC]*dA*dG*dG*dT*dG*d[5mC]*dA*eG*e[5mC]*eT*e[5mC]*e[5mC]) [compound 337313] | 61%
31 | 337314 (antisense e[5mC]*eT*e[5mC]*eA*eA*dA*dG*dG*dT*dG*dA*dT*d[5mC]*dA*dG*eG*eT*eG*e[5mC]*eA) [compound 337314] | 75%
32 | 337315 (antisense eG*eA*eG*eG*e[5mC]*d[5mC]*dT*dT*dG*dG*dT*dG*dA*dT*dA*e[5mC]*eA*e[5mC]*e[5mC]*eT) [compound 337315] | 46%
33 | 337316 (antisense eT*e[5mC]*eA*eA*eT*d[5mC]*dT*dT*dG*dA*dG*dG*d[5mC]*d[5mC]*dT*eT*eG*eG*eT*eG) [compound 337316] | 59%
34 | 337317 (antisense e[5mC]*eT*eA*eG*eG*dT*d[5mC]*dA*dA*dT*d[5mC]*dT*dT*dG*dA*eG*eG*e[5mC]*e[5mC]*eT) [compound 337317] | 55%
